Measured values reported in US20040044026A1, “3-Substituted quinuclidines and their use as nicotinic agonists” (priority 2000, published 2004).
Where a name gives a salt, the structure may show the parent alone. Read-outs that look alike come from different tables or passages of the source.

Legend:
[1] = biological target: nicotinic receptors (non-selective); test: in vitro inhibition of 3H-epibatidin binding; settings: radioligand 3H-epibatidin
Source text: the in vitro inhibition of ^3H-epibatidin binding, which is a standard assay for determining non-selective binding to nicotinic receptors,
(§1) Such standard assays are described in e.g. WO 99/21834.
(§2) In this example the affinity of compounds of the invention for nicotinic acetylcholine receptors are investigated using standard assays described in WO 99/21834.
First the in vitro inhibition of ^3H-epibatidin binding, which is a standard assay for determining non-selective binding to nicotinic receptors, was determined.

[2] = biological target: α4β2-subtype of nicotinic receptors (Rattus norvegicus, UniProt P09483+P12390); test: in vitro inhibition of 3H-cytisine binding
Sequence of α4β2-subtype of nicotinic receptors (P09483 31-630): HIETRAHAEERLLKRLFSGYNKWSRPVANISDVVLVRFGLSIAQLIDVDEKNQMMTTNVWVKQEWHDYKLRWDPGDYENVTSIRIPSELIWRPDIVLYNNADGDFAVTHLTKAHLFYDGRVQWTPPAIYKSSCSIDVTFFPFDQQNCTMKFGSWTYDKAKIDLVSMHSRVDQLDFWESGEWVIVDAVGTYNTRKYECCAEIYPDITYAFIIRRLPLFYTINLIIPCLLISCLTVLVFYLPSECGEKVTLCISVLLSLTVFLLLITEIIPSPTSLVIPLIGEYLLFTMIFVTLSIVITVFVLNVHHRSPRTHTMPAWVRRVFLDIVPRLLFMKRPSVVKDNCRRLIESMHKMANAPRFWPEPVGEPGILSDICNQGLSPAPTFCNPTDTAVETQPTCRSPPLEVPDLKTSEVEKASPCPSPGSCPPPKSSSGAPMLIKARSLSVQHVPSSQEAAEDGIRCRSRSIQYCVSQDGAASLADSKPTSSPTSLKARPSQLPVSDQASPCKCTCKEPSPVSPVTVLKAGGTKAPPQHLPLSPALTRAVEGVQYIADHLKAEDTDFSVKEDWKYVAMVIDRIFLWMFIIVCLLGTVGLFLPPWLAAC
Sequence of α4β2-subtype of nicotinic receptors (P12390 25-500): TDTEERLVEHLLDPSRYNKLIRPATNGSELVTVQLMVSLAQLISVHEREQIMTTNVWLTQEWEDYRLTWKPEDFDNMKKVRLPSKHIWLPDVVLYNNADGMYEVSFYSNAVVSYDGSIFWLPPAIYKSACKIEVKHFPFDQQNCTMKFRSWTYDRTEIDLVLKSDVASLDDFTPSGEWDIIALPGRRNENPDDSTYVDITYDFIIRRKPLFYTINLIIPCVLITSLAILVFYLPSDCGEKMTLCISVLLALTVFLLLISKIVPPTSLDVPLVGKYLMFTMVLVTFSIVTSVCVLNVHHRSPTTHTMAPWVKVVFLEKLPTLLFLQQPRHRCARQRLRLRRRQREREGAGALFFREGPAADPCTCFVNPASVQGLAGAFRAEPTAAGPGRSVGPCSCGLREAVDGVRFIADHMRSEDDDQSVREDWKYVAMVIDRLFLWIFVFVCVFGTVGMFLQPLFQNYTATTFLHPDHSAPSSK
Source text: the in vitro inhibition ^3H-cytisine binding, which is a standard assay for determining selective binding to α4β2 subtype of nicotinic receptors, and/or
as §1, §2
Next the in vitro inhibition ^3H-cytisine binding, which is a standard assay for determining selective binding to α4β2-subtype of nicotinic receptors, was determined.

[3] = biological target: α7-subtype of nicotinic receptors (Rattus norvegicus, UniProt Q05941); test: biochemical; format: binding
Sequence of α7-subtype of nicotinic receptors (Q05941 23-502): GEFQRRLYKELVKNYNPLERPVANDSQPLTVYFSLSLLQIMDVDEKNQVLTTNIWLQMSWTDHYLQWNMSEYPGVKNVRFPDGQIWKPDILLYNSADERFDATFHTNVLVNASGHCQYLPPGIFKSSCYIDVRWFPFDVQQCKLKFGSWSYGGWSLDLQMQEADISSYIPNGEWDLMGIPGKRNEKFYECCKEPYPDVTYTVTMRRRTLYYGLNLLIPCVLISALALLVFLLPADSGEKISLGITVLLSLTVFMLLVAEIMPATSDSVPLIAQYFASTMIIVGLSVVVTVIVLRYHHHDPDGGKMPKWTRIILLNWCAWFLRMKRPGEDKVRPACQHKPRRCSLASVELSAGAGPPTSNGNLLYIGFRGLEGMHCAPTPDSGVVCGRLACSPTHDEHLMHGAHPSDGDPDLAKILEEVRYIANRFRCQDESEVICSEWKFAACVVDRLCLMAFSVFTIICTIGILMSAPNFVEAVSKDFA

Row | SMILES | IC50 [1] [µM] | IC50 [2] [µM] | IC50 [3] [µM] | IC50 ([2]; radioligand 3H-cytisine, read-out: in vitro Inhibition of Binding (IC50) 3H-cytisine binding) [µM]
1 | c1ccc2cc(C3CN4CCC3CC4)ccc2c1 (racemic) [Compound C1, (±)-3-(2-Naphthyl)-quinuclidine fumaric acid salt] | 7.5 | 6 | 0.15 | 
2 | C1=C(c2ccc3ccccc3c2)C2CCN1CC2 [Compound B1, 3-(2-Naphthyl)-quinuclidine-3-ene fumaric acid salt] | 17 |  | 0.058 | 10
